Experimental data: patent publication US20190365673A1, “Immunomodulatory Compounds” (Lankenau Institute for Medical Research, priority 2016, published 2019)

Experiments:
[1] = test system: B16F10-sTAC melanoma tumors; assay: B16F10-sTAC melanoma tumor model; conditions: for polyamine levels in tumors (HPLC): FIG. 1D, compared with vehicle-treated mice; for cytokine levels in tumors: FIG. 3, compared to vehicle treated mice; for B16F10-sTAC tumor growth compared to vehicle: Trimer PTI 3 mg/kg i.p. daily and/or 0.25% DFMO in drinking water
Method: FIG. 1A: Mice were subcutaneously injected with 5×10^5 B16F10-sTAC melanoma cells. When tumors were 50-100 mm^3 in size, treatment was initiated with either saline, 0.25% DFMO (w/v) in the drinking water, Trimer PTI (i.p., 3 mg/kg, once a day) or both DFMO and Trimer PTI. […] FIG. 1B: Upon sacrifice, tumors were excised and weighed (mean±SEM). FIG. 1C: Spleen weight was determined upon sacrifice (mean±SEM). FIG. 1D: Polyamine levels were determined in tumors by HPLC and normalized to DNA levels in the tissue extracts (nmol/mg DNA). […] Trimer PTI levels were determined in tumor and skin supernatants by mass spectrometry and normalized to tissue protein concentration (nmol/mg protein). n=5-10 mice per group; *=p≤0.05 and #=p≤0.01 compared to vehicle-treated mice.
Tumor models were established by subcutaneous injections of 5×10^5 B16F10-sTAC cells in C57B16 mice or 5×10^5 CT26.CL25 cells in Balb/c mice. Mice were monitored twice a week for tumor growth. Treatment with 0.25% (w/v) DFMO in the drinking water and the Trimer PTI (3 mg/kg daily by intraperitoneal injection) was initiated when tumors were palpable (50-100 mm^3). For adoptive transfers, spleens were excised and pressed through a nylon filter to obtain a single cell suspension. The resulting suspension was incubated with red cell lysis buffer for 5 minutes to lyse red blood cells. Gr1^+ cells were stained with a PE conjugated antibody and then isolated using anti-PE microbeads (Miltenyi Biotec) as per the manufacturer's instructions. Gr1^+ positive cells were injected into the retro-orbital cavity. Tumor growth was assessed morphometrically using calipers, and tumor volumes were calculated using the formula V (mm^3)=π/6×A×B^2 (A is the larger diameter and B is the smaller diameter).
Upon sacrifice, splenocytes from B16F10-sTAC tumor bearing mice and tumor cell suspensions from CT26.CL25 tumor bearing mice were analyzed for IFN-γ producing cells by enzyme-linked immunosorbent spot (ELISpot) assay. Multiscreen filtration plates (Millipore) were coated with 0.5 μg/mL of purified anti-mouse IFN-γ capture antibody (Biolegend) overnight at 4° C. Single-cell suspensions of splenocytes or tumors were plated at 1×10^6 and 5×10^5 per well respectively. For ELISpot assays with splenocytes from B16F10-sTAC tumor bearing mice, cells were stimulated with the […] (SEQ ID NO: 1) peptide (Anaspec) at […]. […] After 16 hours of stimulation at 37° C., the cells were removed by washing and spots were developed with a biotinylated anti-IFN-γ detection antibody and streptavidin-horseradish peroxidase conjugate followed by NITRO-blue tetrazolium chloride and 5-bromo-4-chloro-3′-indoylphosphate p-toluidine salt substrate (Sigma). Spot numbers were counted, and data were reported as IFN-γ-spot forming cells per 10^6 cells.
Mouse tumor tissues were fixed in 4% paraformaldehyde in PBS overnight and embedded in paraffin. Sections were deparaffinized, hydrated, and then heated in 0.01 mol/L sodium citrate buffer (pH 6.0) in a steamer for 8 minutes. Sections were incubated with the primary antibody (rat monoclonal anti-mouse F4/80 [BioRad MCA497GA]) for 2 hours at room temperature followed by biotinylated secondary and then an avidin HRP complex (Vectastain Elite ABC KIT, Vector Laboratories, INC). Immunoreactive cells were localized by incubating the sections with diaminobenzidine and peroxide and then counterstaining with hematoxylin. Pictures were obtained using a Zeiss Axiophot microscope (Carl Zeiss Inc.) with a digital color camera and corresponding software.
B16F10-sTAC tumors were flash frozen in liquid nitrogen, ground and homogenized in PBS containing 0.5 μM dithiothreitol, 0.5 μM Pefabloc and 8 μg/mL leupeptin. Samples were analyzed for monocyte chemoattractant protein-1 (MCP-1), interleukin-6 (IL-6).

[2] = test system: polyamine transport system (PTS); assay: Radiolabeled spermidine transport assay, human melanoma cell lines; format: cell-based; conditions: FIG. 8A, WM983B (BRAF V600E), 1 mM DFMO 40 h
Method: (§1) Polyamine transport in tumor cells was evaluated essentially as described (Kramer, et al. (1993) J. Cell Physiol., 155(2):399-407; Nilsson, et al. (2005) Cancer Cell 7(5):433-444). Radioactive spermidine (Net-522 Spermidine Trihydrochloride, [Terminal Methylenes-^3H(n)]) from Perkin Elmer was used (specific activity: 16.6 Ci/mmol). Cells were plated in 96 well plates and grown to approximately 80% confluence. Half of the cells were treated with 1 mM DFMO for 40 hours. After repeated washing with PBS, ^3H-spermidine was added at 1 μM and incubated for 60 minutes at 37° C. Cells were then washed with cold PBS containing 50 μM spermidine and lysed in 0.1% SDS at 37° C. for 30 minutes with mixing. Cell lysates were then aliquoted for scintillation counting and for protein assay using a mini-BioRad assay. Results were expressed as CPM/g protein.

[3] = test system: polyamine transport system (PTS); assay: Radiolabeled spermidine transport assay, murine melanoma cells; format: cell-based
Method: (§2) FIG. 9A: Murine BRAF^V600E YUMM1.7 melanoma cells and BRAF^WT B16F10 melanoma cells were treated with increasing doses of AP. After 72 hours of culture, cell survival was determined via EZQuant™ Cell Quantifying assay. IC50 values were calculated by GraphPad Prism 6. FIG. 9B: Murine BRAF^V600E YUMM1.7 melanoma cells and BRAF^WT B16F10 melanoma cells were treated with increasing doses of AP±1 mM DFMO or with PLX4720. After 72 hours of culture, cell survival was determined via EZQuant™ Cell Quantifying assay. IC50 values were calculated by GraphPad Prism 6. […] Cells were washed with cold PBS containing 50 μM spermidine, and cell lysates were assayed for CPM ^3H-spermidine per mg protein by scintillation counting.
as §1

[4] = test system: 1205Lu melanoma spheroids; assay: 3D spheroid culture viability (CellTiter-Glo); format: cell-based, human; conditions: FIG. 10, 25 μM each drug, 48 h, 3D spheroids on NCPs
Method: BRAF^V600E mutant 1205Lu melanoma cells were seeded at 1×10^4 cells in each well of the […] NCPs. When spheroids were formed on day 3, the 3D cultures of spheroids were treated with PLX4720 (25 μM) and/or AP (25 μM). 2D monolayer cultures of 1205Lu melanoma cells were also treated with PLX4720 (25 μM) and/or AP (25 μM). After drug treatment for 48 hours, the viability of spheroids and monolayer cultures was assayed using the CellTiter-Glo Luminescent Cell Viability Assay. The percent cell survival in each treatment group was calculated relative to cells treated with medium only under the same conditions. As controls, the growth of cells without drug treatment under each condition was normalized as 100% separately. The means are presented±SD.
The inorganic nanoscale scaffolding NanoCulture plates (NCP) were purchased from SCIVAX. The base of each NCP is constructed with a transparent cyclo-olefin resinous sheet with a nanoscale indented pattern. To form spheroids, 1205Lu human melanoma cells were seeded in 96-well NCPs at 1×10^4 cells/well in MCDB153 (Sigma)/Leibovitz's L-15 (Cellgro) medium (4:1 ratio) supplemented with 2% heat-inactivated fetal calf serum and 2 mM CaCl2 and incubated in a conventional cell incubator at 37° C. in an atmosphere of 5% CO2 and normal O2 levels. […]

[5] = test system: 1205Lu melanoma cells transduced with JARID1B-promoter-EGFP-reporter; assay: JARID1B-promoter-EGFP reporter in spheroids; format: cell-based, human; conditions: 2-day exposure, 1205Lu grown as spheroids
Description: Treatment with a BRAF inhibitor such as PLX4720 enriches a slow-cycling cancer stem cell-like (CSC) subpopulation of melanoma cells that is characterized by stem cell markers including JARID1B and spheroid formation (Roesch, et al. (2010) Cell 141(4):583-594; Roesch, et al. (2013) Cancer Cell 23(6):811-825). It is thought that cancer stem cell populations exist in a hypoxic microenvironment (Schwab, et al. (2012) Breast Cancer Res., 14(1):R6; Mathieu, et al. (2011) Cancer Res., 71(13):4640-4652; Mohyeldin, et al. (2010) Cell Stem Cell, 7(2):150-161). Endogenous ROS levels are increased in slow cycling JARID1B^high melanoma cells as a result of increased mitochondrial respiration and oxidative phosphorylation (Roesch, et al. (2013) Cancer Cell 23(6):811-825). […] Using 1205Lu melanoma cells stably transduced with a JARID1B-promoter-EGFP-reporter construct (Roesch, et al.

[6] = test system: BRAF^V600E YUMM1.7 melanoma cells; assay: Cell viability assay (EZQuant), YUMM1.7; format: cell-based, murine; conditions: FIG. 9B, 72 h
Method: as §2

BRAF^WT melanoma cells = conditions: WM3451, WM3743, WM3211; read-out: IC50 (cell viability); cited from earlier work
[7] = test system: BRAF^V600E melanoma cells; conditions: WM983B, WM3734, 1205Lu, WM989, WM88; read-out: IC50 (cell viability); cited from earlier work
[8] = test system: BRAF-mutant melanoma tumor; assay: BRAF-mutant melanoma tumor in mice treated with PLX4720; format: in vivo; conditions: FIG. 11, PLX4720 alone
Method: FIG. 11 provides a graph of tumor volume in mice over time after treatment with PLX4720 alone or PLX4720 with delayed administration of AP and DFMO.
In addition to the above, the efficacy of AP in vivo was also tested.

[9] = compared to AMXT1501; cited from earlier work

NCCC[C@](N)(C(=O)O)C(F)F [DFMO, α-difluoromethylornithine, reference compound]
polyamine levels in tumors (HPLC) [1]: reduced the levels of putrescine | cytokine levels in tumors [1]: did not significantly alter | B16F10-sTAC tumor growth compared to vehicle [1]: only modestly reduced | polyamine transport activity after DFMO treatment [2]: dramatically increased polyamine transport activity | polyamine uptake after DFMO treatment ([3]; B16F10 retrovirally expressing BRAF V600E, 1 mM DFMO): enhance polyamine uptake | polyamine uptake after DFMO treatment ([3]; FIG. 9C, B16F10 (BRAF WT), 1 mM DFMO 40 h): no significant induction | PTS activity after DFMO treatment ([3]; FIG. 9C, YUMM1.7 (BRAF V600E), 1 mM DFMO 40 h): marked DFMO-induction of PTS activity

CCCS(=O)(=O)Nc1ccc(F)c(C(=O)c2c[nH]c3ncc(Cl)cc23)c1F [PLX4720, reference compound]
cell viability of spheroid cultures [4]: more resistant | enrichment of JARID1B-driven GFP expressing cells [5]: 4 fold | sensitivity to PLX4720 (IC50 compared to B16F10 cells) [6]: very sensitive | IC50 (BRAF^WT melanoma cells): > 3000 nM | IC50 [7]: ≤ 3000 nM | BRAF-mutant melanoma tumor volume over time [8]: initially quickly regress but then grow back

CNCCCCNCCCCNCc1cc(CNCCCCNCCCCNC)cc(CNCCCCNCCCCNC)c1 [Trimer PTI]
water solubility [9]: more water-soluble | spleen weight ([1]; FIG. 1C, Trimer PTI with or without DFMO): no significant effect | polyamine levels in tumors (HPLC) [1]: no discernible effect | accumulation in tumor compared to non-tumor bearing skin (mass spectrometry) ([1]; FIG. 1E, PBT-treated mice): 30 fold | cytokine levels in tumors [1]: did not significantly alter | B16F10-sTAC tumor growth compared to vehicle [1]: only modestly reduced
